Measurements reported in ChEMBL document CHEMBL1139215, “Discovery of aminofurazan-azabenzimidazoles as inhibitors of Rho-kinase with high kinase selectivity and antihypertensive activity” (J Med Chem, 2007).
Calls of active or inactive are those of the source. No cut-off for these calls is given here.

What was measured:
[1] = species: Homo sapiens; assay: Selectivity for ROCK1 over MSK1
[2] = species: Homo sapiens; assay: Selectivity for ROCK1 over p70S6K
[3] = Cmax in Sprague-Dawley rat at 3.7 mg/kg, po; format: ADME, organism-based; set-up: dose 3.7 mg/kg, route oral; conditions: in vivo
[4] = test system: Aorta; assay: Relaxation of phenylephrine contracted Sprague-Dawley rat aortic rings; format: functional, tissue-based
[5] = Clearance in Sprague-Dawley rat at 1.2 mg/kg, iv; format: ADME, organism-based; set-up: dose 1.2 mg/kg, route intravenous; conditions: in vivo
[6] = Cmax in Sprague-Dawley rat at 1.2 mg/kg, iv; format: ADME, organism-based; set-up: dose 1.2 mg/kg, route intravenous; conditions: in vivo
[7] = Oral bioavailability in Sprague-Dawley rat at 3.7 mg/kg, po; format: ADME, organism-based; conditions: in vivo
[8] = Half life in Sprague-Dawley rat at 1.2 mg/kg, iv; format: ADME, organism-based; set-up: dose 1.2 mg/kg, route intravenous; conditions: in vivo
[9] = target: Rho-associated protein kinase 1 (Homo sapiens, UniProt Q13464); assay: Inhibition of human ROCK1 in Sf9 cells; format: cell-based
Sequence of Rho-associated protein kinase 1 (Q13464 whole entry): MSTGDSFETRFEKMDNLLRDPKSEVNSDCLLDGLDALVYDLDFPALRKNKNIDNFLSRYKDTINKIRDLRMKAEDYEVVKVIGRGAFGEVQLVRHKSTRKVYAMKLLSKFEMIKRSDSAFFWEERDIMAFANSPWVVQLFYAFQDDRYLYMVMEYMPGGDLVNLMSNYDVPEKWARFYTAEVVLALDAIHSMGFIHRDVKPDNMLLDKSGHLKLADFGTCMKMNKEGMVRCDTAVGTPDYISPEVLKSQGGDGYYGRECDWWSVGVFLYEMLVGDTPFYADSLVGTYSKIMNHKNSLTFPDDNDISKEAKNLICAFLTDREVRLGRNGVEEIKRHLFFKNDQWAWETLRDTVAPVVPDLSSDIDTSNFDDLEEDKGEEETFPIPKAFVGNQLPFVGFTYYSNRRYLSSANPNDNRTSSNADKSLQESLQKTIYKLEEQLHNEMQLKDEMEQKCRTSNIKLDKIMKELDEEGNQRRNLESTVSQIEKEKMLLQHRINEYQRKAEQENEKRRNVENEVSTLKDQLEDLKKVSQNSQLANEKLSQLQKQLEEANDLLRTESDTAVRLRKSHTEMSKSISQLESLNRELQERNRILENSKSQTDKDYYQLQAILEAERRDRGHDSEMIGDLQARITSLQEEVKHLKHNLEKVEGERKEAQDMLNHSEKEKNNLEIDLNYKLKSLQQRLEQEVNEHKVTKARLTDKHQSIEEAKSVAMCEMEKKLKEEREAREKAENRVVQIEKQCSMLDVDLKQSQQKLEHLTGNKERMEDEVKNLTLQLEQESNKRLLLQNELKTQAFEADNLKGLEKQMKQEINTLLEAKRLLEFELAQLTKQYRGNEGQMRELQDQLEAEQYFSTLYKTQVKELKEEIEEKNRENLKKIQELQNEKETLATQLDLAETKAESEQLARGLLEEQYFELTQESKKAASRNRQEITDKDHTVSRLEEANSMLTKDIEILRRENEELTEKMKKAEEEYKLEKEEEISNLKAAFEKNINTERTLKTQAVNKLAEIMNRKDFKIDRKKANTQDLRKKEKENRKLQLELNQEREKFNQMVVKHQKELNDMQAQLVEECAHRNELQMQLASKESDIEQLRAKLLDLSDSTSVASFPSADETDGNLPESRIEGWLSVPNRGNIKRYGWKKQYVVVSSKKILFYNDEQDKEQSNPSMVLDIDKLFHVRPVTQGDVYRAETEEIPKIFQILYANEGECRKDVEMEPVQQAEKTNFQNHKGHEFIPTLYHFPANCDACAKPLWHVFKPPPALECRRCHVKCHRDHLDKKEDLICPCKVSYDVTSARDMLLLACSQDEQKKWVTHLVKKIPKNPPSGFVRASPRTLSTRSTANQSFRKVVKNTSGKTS

[10] = species: Homo sapiens; assay: Selectivity for ROCK1 over RSK1
[11] = Volume of distribution in Sprague-Dawley rat at 1.2 mg/kg, iv; format: ADME, organism-based; set-up: dose 1.2 mg/kg, route intravenous; conditions: in vivo, read-out: Vdss
[12] = Half life in Sprague-Dawley rat at 1.1 mg/kg, iv; format: ADME, organism-based; set-up: dose 1.1 mg/kg, route intravenous; conditions: in vivo
[13] = Clearance in Sprague-Dawley rat at 1.1 mg/kg, iv; format: ADME, organism-based; set-up: dose 1.1 mg/kg, route intravenous; conditions: in vivo
[14] = Volume of distribution in Sprague-Dawley rat at 1.1 mg/kg, iv; format: ADME, organism-based; set-up: dose 1.1 mg/kg, route intravenous; conditions: in vivo, read-out: Vdss
[15] = Cmax in Sprague-Dawley rat at 2.2 mg/kg, po; format: ADME, organism-based; set-up: dose 2.2 mg/kg, route oral; conditions: in vivo
[16] = Oral bioavailability in Sprague-Dawley rat at 2.2 mg/kg, po; format: ADME, organism-based; conditions: in vivo
[17] = Cmax in Sprague-Dawley rat at 1.1 mg/kg, iv; format: ADME, organism-based; set-up: dose 1.1 mg/kg, route intravenous; conditions: in vivo
[18] = species: Homo sapiens; assay: Selectivity for ROCK1 over CDK2
[19] = species: Homo sapiens; assay: Selectivity for ROCK1 over GSK3-beta
[20] = test system: Rattus norvegicus; assay: Reduction of mean arterial blood pressure in spontaneous hypertensive rat at 3 mg/kg, po; format: functional, organism-based; set-up: dose 3 mg/kg
[21] = Plasma concentration in spontaneously hypertensive rat at 3 mg/kg, po after 0.5 hrs; format: ADME, organism-based; set-up: dose 3 mg/kg, route oral
[22] = Plasma concentration in spontaneously hypertensive rat at 3 mg/kg, po after 1 hr; format: ADME, organism-based; set-up: dose 3 mg/kg, route oral
[23] = Cmax in Sprague-Dawley rat at 1.6 mg/kg, iv; format: ADME, organism-based; set-up: dose 1.6 mg/kg, route intravenous; conditions: in vivo
[24] = Cmax in Sprague-Dawley rat at 3.3 mg/kg, po; format: ADME, organism-based; set-up: dose 3.3 mg/kg, route oral; conditions: in vivo
[25] = test system: Rattus norvegicus; assay: Reduction of mean arterial blood pressure in spontaneous hypertensive rat at 0.3 mg/kg, po; format: functional, organism-based; set-up: dose 0.3 mg/kg
[26] = Oral bioavailability in Sprague-Dawley rat at 3.3 mg/kg, po; format: ADME, organism-based; conditions: in vivo
[27] = Plasma concentration in spontaneously hypertensive rat at 3 mg/kg, po after 4 hrs; format: ADME, organism-based; set-up: dose 3 mg/kg, route oral
[28] = Clearance in Sprague-Dawley rat at 1.6 mg/kg, iv; format: ADME, organism-based; set-up: dose 1.6 mg/kg, route intravenous; conditions: in vivo
[29] = Half life in Sprague-Dawley rat at 1.6 mg/kg, iv; format: ADME, organism-based; set-up: dose 1.6 mg/kg, route intravenous; conditions: in vivo
[30] = test system: Rattus norvegicus; assay: Reduction of mean arterial blood pressure in spontaneous hypertensive rat at 1 mg/kg, po; format: functional, organism-based; set-up: dose 1 mg/kg
[31] = Volume of distribution in Sprague-Dawley rat at 1.6 mg/kg, iv; format: ADME, organism-based; set-up: dose 1.6 mg/kg, route intravenous; conditions: in vivo, read-out: Vdss
[32] = Plasma concentration in spontaneously hypertensive rat at 3 mg/kg, po after 2 hrs; format: ADME, organism-based; set-up: dose 3 mg/kg, route oral
[33] = Plasma concentration in spontaneously hypertensive rat at 3 mg/kg, po after 8 hrs; format: ADME, organism-based; set-up: dose 3 mg/kg, route oral
[34] = Oral bioavailability in Sprague-Dawley rat at 2.1 mg/kg, po; format: ADME, organism-based; conditions: in vivo
[35] = Half life in Sprague-Dawley rat at 2.1 mg/kg, iv; format: ADME, organism-based; set-up: dose 2.1 mg/kg, route intravenous; conditions: in vivo
[36] = Cmax in Sprague-Dawley rat at 2.1 mg/kg, iv; format: ADME, organism-based; set-up: dose 2.1 mg/kg, route intravenous; conditions: in vivo
[37] = Volume of distribution in Sprague-Dawley rat at 2.1 mg/kg, iv; format: ADME, organism-based; set-up: dose 2.1 mg/kg, route intravenous; conditions: in vivo, read-out: Vdss
[38] = Clearance in Sprague-Dawley rat at 2.1 mg/kg, iv; format: ADME, organism-based; set-up: dose 2.1 mg/kg, route intravenous; conditions: in vivo
[39] = Cmax in Sprague-Dawley rat at 2.1 mg/kg, po; format: ADME, organism-based; set-up: dose 2.1 mg/kg, route oral; conditions: in vivo
[40] = Half life in Sprague-Dawley rat at 1 mg/kg, iv; format: ADME, organism-based; set-up: dose 1 mg/kg, route intravenous; conditions: in vivo
[41] = Cmax in Sprague-Dawley rat at 1 mg/kg, iv; format: ADME, organism-based; set-up: dose 1 mg/kg, route intravenous; conditions: in vivo
[42] = Volume of distribution in Sprague-Dawley rat at 1 mg/kg, iv; format: ADME, organism-based; set-up: dose 1 mg/kg, route intravenous; conditions: in vivo, read-out: Vdss
[43] = Clearance in Sprague-Dawley rat at 1 mg/kg, iv; format: ADME, organism-based; set-up: dose 1 mg/kg, route intravenous; conditions: in vivo
[44] = Cmax in Sprague-Dawley rat at 2.4 mg/kg, iv; format: ADME, organism-based; set-up: dose 2.4 mg/kg, route intravenous; conditions: in vivo
[45] = Half life in Sprague-Dawley rat at 2.4 mg/kg, iv; format: ADME, organism-based; set-up: dose 2.4 mg/kg, route intravenous; conditions: in vivo
[46] = Clearance in Sprague-Dawley rat at 2.4 mg/kg, iv; format: ADME, organism-based; set-up: dose 2.4 mg/kg, route intravenous; conditions: in vivo
[47] = Volume of distribution in Sprague-Dawley rat at 2.4 mg/kg, iv; format: ADME, organism-based; set-up: dose 2.4 mg/kg, route intravenous; conditions: in vivo, read-out: Vdss
[48] = Cmax in Sprague-Dawley rat at 0.85 mg/kg, iv; format: ADME, organism-based; set-up: dose 0.85 mg/kg, route intravenous; conditions: in vivo
[49] = Clearance in Sprague-Dawley rat at 0.85 mg/kg, iv; format: ADME, organism-based; set-up: dose 0.85 mg/kg, route intravenous; conditions: in vivo
[50] = Half life in Sprague-Dawley rat at 0.85 mg/kg, iv; format: ADME, organism-based; set-up: dose 0.85 mg/kg, route intravenous; conditions: in vivo
[51] = Volume of distribution in Sprague-Dawley rat at 0.85 mg/kg; format: ADME, organism-based; set-up: dose 0.85 mg/kg; conditions: in vivo, read-out: Vdss
[52] = Oral bioavailability in Sprague-Dawley rat at 2 mg/kg, po; format: ADME, organism-based; conditions: in vivo
[53] = Cmax in Sprague-Dawley rat at 2 mg/kg, po; format: ADME, organism-based; set-up: dose 2 mg/kg, route oral; conditions: in vivo

SMILES | Selectivity ratio [1] | Selectivity ratio [2] | IC50 [4] | IC50 [9] | Selectivity ratio [10] | Selectivity ratio [18] | Selectivity ratio [19] | also measured
CCn1c(-c2nonc2N)nc2cnc(Oc3cccc(NC(=O)c4ccccc4)c3)cc21 | 2.2 | 3 | 106 nM | 4 nM | 3.8 | – | – | Cmax [3]: 6940 ng/mL; clearance [5]: 0.18 mL/min/kg; Cmax [6]: 11700 ng/mL; bioavailability [7]: 35%; half-life [8]: 9.6 h; Vd [11]: 0.16 L/kg
CCn1c(-c2nonc2N)nc2cnc(Oc3cccc(NC(=O)c4ccc(CN5CCOCC5)cc4)c3)cc21 | > 35 | > 10 | 102 nM | ≤ 1 nM | > 120 | – | – | half-life [12]: 1.4 h; clearance [13]: 10.7 mL/min/kg; Vd [14]: 1.1 L/kg; Cmax [15]: 684 ng/mL; bioavailability [16]: 64%; Cmax [17]: 1100 ng/mL
CCn1c(-c2nonc2N)nc2cnc(OC)cc21 | 2.3 | 15 | – | 4.4 nM | 18 | 55 | 250 | –
CCn1c(-c2nonc2N)nc2cnc(Oc3cccc(S(C)(=O)=O)c3)cc21 | 3.9 | 0.7 | – | 33 nM | 2.7 | – | 150 | –
CCn1c(-c2nonc2N)nc2cnc(Oc3cccc(NC(=O)c4ccc(OCCN5CCOCC5)cc4)c3)cc21 [GSK-269962A] | – | – | 35 nM | – | – | – | – | Activity [20]: Active; concentration at 0.5 h [21]: 280 ng/mL; concentration at 1 h [22]: 330 ng/mL; Cmax [23]: 1270 ng/mL; Cmax [24]: 800 ng/mL; Activity [25]: Active; bioavailability [26]: 78%; concentration at 4 h [27]: 150 ng/mL; clearance [28]: 7.6 mL/min/kg; half-life [29]: 2.2 h; Activity [30]: Active; Vd [31]: 1.3 L/kg; concentration at 2 h [32]: 290 ng/mL; concentration at 8 h [33]: 88 ng/mL
CCn1c(-c2nonc2N)nc2cnc(Oc3ccc(NC(C)=O)cc3)cc21 | 9.7 | 9.2 | – | 90 nM | 12 | 110 | > 160 | –
CCn1c(-c2nonc2N)nc2cnc(Oc3cccc(C(C)=O)c3)cc21 | 12 | 6.2 | – | 13 nM | 12 | 460 | > 1000 | –
CCn1c(-c2nonc2N)nc2cnc(Oc3cccc(NC(=O)c4ccc(N5CCOCC5)cc4)c3)cc21 | > 26 | > 10 | 59 nM | ≤ 1 nM | > 60 | – | – | bioavailability [34]: 23%; half-life [35]: 0.9 h; Cmax [36]: 1500 ng/mL; Vd [37]: 0.57 L/kg; clearance [38]: 8.6 mL/min/kg; Cmax [39]: 890 ng/mL
CCn1c(-c2nonc2N)nc2cnc(Oc3cccc(NC(=O)c4ccc(CN)cc4)c3)cc21 | > 70 | > 17 | 107 nM | ≤ 1 nM | > 70 | – | – | half-life [40]: 1.4 h; Cmax [15]: 255 ng/mL; Cmax [41]: 9900 ng/mL; Vd [42]: 0.11 L/kg; bioavailability [16]: 4%; clearance [43]: 2.3 mL/min/kg
CCn1c(-c2nonc2N)nc2cnc(Oc3cccc(NC(=O)c4ccc(CN(C)C)cc4)c3)cc21 | > 52 | > 3 | 74 nM | ≤ 1 nM | > 80 | – | – | half-life [40]: 1.9 h; Cmax [15]: 160 ng/mL; Cmax [41]: 630 ng/mL; Vd [42]: 2.4 L/kg; bioavailability [16]: 47%; clearance [43]: 30 mL/min/kg
CCn1c(-c2nonc2N)nc2cnc(Oc3cccc(NC(=O)c4ccc(OCCN(C)C)cc4)c3)cc21 | > 65 | > 3 | 79 nM | ≤ 1 nM | > 80 | – | – | Cmax [44]: 410 ng/mL; half-life [45]: 2.1 h; Cmax [24]: 410 ng/mL; clearance [46]: 121 mL/min/kg; bioavailability [26]: 40%; Vd [47]: 8.9 L/kg
CCn1c(-c2nonc2N)nc2cnc(Oc3cccc(N)c3)cc21 | 9.4 | 13 | – | 18 nM | 8.9 | 320 | 300 | –
CCn1c(-c2nonc2N)nc2cnc(Oc3cccc(NC(C)=O)c3)cc21 | 2.8 | 14 | – | 1.8 nM | 18 | > 1000 | > 1000 | –
CCn1c(-c2nonc2N)nc2cnccc21 | 0.18 | 3.1 | – | 19 nM | 0.63 | 22 | 53 | –
CCn1c(-c2nonc2N)nc2cnc(Oc3ccccc3)cc21 | 1.5 | 18 | – | 30 nM | 10 | > 130 | > 500 | –
CCn1c(-c2nonc2N)nc2cnc(Oc3cccc(NC(=O)c4ccc(N(C)C)cc4)c3)cc21 [GSK-248233A] | 13 | 7 | 106 nM | 2 nM | 45 | – | – | Cmax [48]: 18600 ng/mL; clearance [49]: 0.14 mL/min/kg; half-life [50]: 8.6 h; Vd [51]: 0.09 L/kg; bioavailability [52]: 11%; Cmax [53]: 3620 ng/mL
